# Reference: patent publication US6355677B1, “Adrenoleukodystrophy treatments and drug screening” (The Johns Hopkins University, priority 1998, dated 2002)
# “Also recorded” adds a separate entry of the source.
# Key:
# [1] = tested on: human primary fibroblasts; experiment: Peroxisome counting by anti-SKL (PTS1) immunofluorescence; format: cell-based; details: 5 mM
# Source text: Peroxisomes were made visible with immunofluorescence using a polyclonal antibody to the C-terminal tripeptide (SKL) peroxisome targeting signal 1 (PTS1), which is present in most peroxisomal matrix proteins. […] We counted the peroxisomes after 10 days of treatment (Table 3). Slides were scanned visually and cells categorized as having low, medium or high numbers of peroxisomes. For each cell line, the number of peroxisomes is the mean of three ‘low’, four ‘medium’ and three ‘high’ cells (Table 3). There was no difference between control cells and X-ALD cells in either the number of peroxisomes per cell or in the response to 4-PBA. […] The 2.4-fold increase in the number of peroxisomes per cell was statistically significant (P<0.0000001, two-tailed Student's t-test). Peroxisome numbers obtained with an antibody against a peroxisomal membrane protein (Pex14p) gave similar results (data not shown).
# The anti-SKL (PTSI) antibody was a gift from S. Gould and the anti-Pex11α antibody was a gift from S. Mihalik. To count peroxisomes, we photographed immunofluorescence-stained cells after focusing on the cell nucleus, and determined the peroxisome number per cell with the aid of a colon counter after projecting the slides to enlarge the image.
# [2] = tested on: mouse X-ALD primary fibroblasts; experiment: VLCFA (C24:0 and C26:0) levels in cultured cells, capillary GC; format: cell-based; details: 5 mM; for C24:0 Percent Correction / C24:0 level, Treated / C26:0 Percent Correction / C26:0 level, Treated: X-ALD mouse primary fibroblasts
# Protocol: (§1) Cell lines derived from X-ALD patients and X-ALD mice were grown in MEM (fibroblasts) or RPMI (lymphoblastoid cells) supplemented with fetal calf serum (10%), penicillin (100 U/ml), streptomycin (100 U/ml) and glutamine (2 mM). […] Cells in the second flask were grown without drug for the same length of time and served as controls. The media were changed every 3-4 days.
# (§2) For VLCFA measurements, total lipids were extracted, converted to methyl esters, purified by TLC and subjected to capillary GC analysis as described. Duplicate assays were set up independently and were assayed on different days. C24:0 β-oxidation activity of human and mouse fibroblasts and human lymphoblastoid cells was determined by measuring their capacity to degrade [1-^14C]-C24:0 fatty acid (American Radiolabeled Chemicals, St. Louis, Mo.) to water-soluble products as described. Phytanic acid oxidation was measured as described. Cells were incubated with [2,3-^3H]-phytanic acid for 24 hours, and the release of ^3H-H2O to the aqueous medium was determined (activity in pmol/hr per mg protein).
# [3] = tested on: human X-ALD lymphoblastoid cells; experiment: as above; format: cell-based
# Protocol: as §1, §2
# [4] = tested on: human X-ALD primary fibroblasts; experiment: as above; format: cell-based; details: for C24:0 level, Treated / C26:0 Percent Correction / C26:0 level, Treated / C24:0 Percent Correction: X-ALD human primary fibroblasts
# Protocol: as §1, §2
# Pex11α = experiment: Semi-quantitative RT-PCR, human primary fibroblasts; format: cell-based; details: 5 mM, 2 days
# Protocol: Total RNA from tissue culture cells (10^6-10^7 cells/sample) was isolated using TRizol Reagent™ (Life Technologies), treated with DNase I (100-200 units in 40 mM HC, 10mM NaC, 6 mM MgCl2, pH 7.3), incubated at 37° C. for 30 min, extracted with pheno/chloroform, and precipitated with isopropanol. cDNA was generated using MMLV reverse transcriptase (RT) (Life Technologies). PCR was done in the linear range of amplification (determined for each primerpair-cDNA combination). For each cDNA sample, a ‘cocktail’ was prepared, containing PCR buffer (Promega), 200 µM of each DNTP, 1.5 mM MgCl2, 250 ng cDNA, 0.25 U of Taq polymerase (Promega) and […]. The ‘cocktail’ was divided into separate tubes containing cDNA specific primers.
# The PCR primers used are listed below. In the parentheses, h indicates human and m, mouse; this is followed by the gene name, product size and annealing temperature. For primer sequences, F is forward and R is reverse. […]
# [5] = used for many years in patients; cited from earlier work
# [6] = X-ALD human lymphoblastoid cells, 5 mM, exposure 6 days
# [7] = X-ALD human lymphoblastoid cells, 5 mM, exposure 10 days
# [8] = between 1 mM and 5 mM, data not shown
structure (smiles),measurement,setting,value
"O=C(O)CCCc1ccccc1 [4-PBA, 4-Phenyl butyrate]",Increase in number of peroxisomes per cell,[1]; 10 days,2.4 fold
same,Peroxisomes per cell after exposure,"[1]; 10 days, five X-ALD and four control cell lines combined, 416±27 before exposure",1014±108 peroxisomes per cell
same,Increase in peroxisome number,"[1]; human X-ALD primary fibroblasts, 8 days",approximately twofold
same,Time of treatment until C24:0 and C26:0 levels were normalized,[2]; mouse fibroblasts,≤ 10 days
same,C24:0 Percent Correction,[2]; exposure 5 days,115%
same,"C24:0 level, Treated",[2]; exposure 5 days,1.10 ± 0.15% of total fatty acids
same,C26:0 Percent Correction,[2]; exposure 5 days,92%
same,"C26:0 level, Treated",[2]; exposure 5 days,0.07 ± 0.03% of total fatty acids
same,C24:0 Percent Correction,[2]; exposure 9 days,152%
same,"C24:0 level, Treated",[2]; exposure 9 days,0.87 ± 0.04% of total fatty acids
same,C26:0 Percent Correction,[2]; exposure 9 days,100%
same,"C26:0 level, Treated",[2]; exposure 9 days,0.05 ± 0.01% of total fatty acids
same,Time of treatment until C24:0 and C26:0 levels were normalized,"[3]; 5 mM, human lymphoblastoid cells",≤ 10 days
same,"C24:0 level, Treated",[3]; [6],0.65 ± 0.17% of total fatty acids
same,C26:0 Percent Correction,[3]; [6],71%
same,"C26:0 level, Treated",[3]; [6],0.11 ± 0.05% of total fatty acids
same,C24:0 Percent Correction,[3]; [7],161%
same,"C24:0 level, Treated",[3]; [7],0.54 ± 0.16% of total fatty acids
same,C26:0 Percent Correction,[3]; [7],90%
same,"C26:0 level, Treated",[3]; [7],0.09 ± 0.05% of total fatty acids
same,Effect on VLCFA levels over concentration range,[3]; [8],dose-dependent decrease
same,Time of treatment until C24:0 levels were normalized,"[4]; 5 mM, human X-ALD fibroblasts",≤ 10 days
same,"C24:0 level, Treated","[4]; 5 mM, exposure 1 day",2.65 ± 0.36% of total fatty acids
same,C26:0 Percent Correction,"[4]; 5 mM, exposure 1 day",2%
same,"C26:0 level, Treated","[4]; 5 mM, exposure 1 day",0.51 ± 0.14% of total fatty acids
same,C24:0 Percent Correction,"[4]; 5 mM, exposure 1 day, untreated X-ALD 0%, normal 100%",−1%
same,C24:0 Percent Correction,"[4]; 5 mM, exposure 6 days",81%
same,"C24:0 level, Treated","[4]; 5 mM, exposure 6 days",1.82 ± 0.28% of total fatty acids
same,C26:0 Percent Correction,"[4]; 5 mM, exposure 6 days",26%
same,"C26:0 level, Treated","[4]; 5 mM, exposure 6 days",0.41 ± 0.04% of total fatty acids
same,C24:0 Percent Correction,"[4]; 5 mM, exposure 12 days",155%
same,"C24:0 level, Treated","[4]; 5 mM, exposure 12 days",1.43 ± 0.34% of total fatty acids
same,C26:0 Percent Correction,"[4]; 5 mM, exposure 12 days",33%
same,"C26:0 level, Treated","[4]; 5 mM, exposure 12 days",0.31 ± 0.06% of total fatty acids
same,C24:0 Percent Correction,"[4]; 5 mM, exposure 16 days",96%
same,"C24:0 level, Treated","[4]; 5 mM, exposure 16 days",1.69 ± 0.27% of total fatty acids
same,C26:0 Percent Correction,"[4]; 5 mM, exposure 16 days",38%
same,"C26:0 level, Treated","[4]; 5 mM, exposure 16 days",0.28 ± 0.03% of total fatty acids
same,C24:0 Percent Correction,"[4]; 5 mM, exposure 22 days",128%
same,"C24:0 level, Treated","[4]; 5 mM, exposure 22 days",1.52 ± 0.14% of total fatty acids
same,C26:0 Percent Correction,"[4]; 5 mM, exposure 22 days",47%
same,"C26:0 level, Treated","[4]; 5 mM, exposure 22 days",0.27 ± 0.04% of total fatty acids
same,Effect on VLCFA levels over concentration range,[4]; [8],dose-dependent decrease
same,Pex11α expression,Pex11α,substantially increased; also recorded: substantial increase
same,Side effects,[5],"few, if any, side effects"
